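Each compound was tested at five concentrations against cells in 96-well plates for 48 hours. TGI is the concentration that stops growth completely.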
system: HOP-92 NSCLC; assay: inhibition of tumour cell growth, NCI panel, 48 h

SMILES	TGI [µM]
COC(=O)C1CC(C=[N+](C)C)=C(SC)N1 (configuration not stated)	> 100
Brc1ccc2c3c1[C@@H]1O[C@@H]1c1cccc(c1-3)[C@@H]1O[C@H]21	43.5
O=C(O)Cc1ccc2nc(COC(=O)c3ccccc3)sc2c1	> 100
N#CC(C#N)=C1CCCS(=O)(=O)c2ccccc21	> 100
O=c1c2cc(I)ccc2[nH]c(=S)n1Cc1ccccc1	63.2
CCOC(=O)c1cnc2[nH]ccn2c1=O	> 10
Cc1cccc(C[C@@]2(SCc3ccccc3)C(C)(C)[C@@H]3CC[C@@]2(C)C3)n1	27.6

system: HS 578T breast; assay: inhibition of tumour cell growth, NCI panel, 48 h

SMILES	TGI [µM]
COC(=O)C1CC(C=[N+](C)C)=C(SC)N1 (configuration not stated)	> 100
Brc1ccc2c3c1[C@@H]1O[C@@H]1c1cccc(c1-3)[C@@H]1O[C@H]21	80.8
O=C(O)Cc1ccc2nc(COC(=O)c3ccccc3)sc2c1	> 100
N#CC(C#N)=C1CCCS(=O)(=O)c2ccccc21	> 100
O=c1c2cc(I)ccc2[nH]c(=S)n1Cc1ccccc1	58.9
CCOC(=O)c1cnc2[nH]ccn2c1=O	> 10
Cc1cccc(C[C@@]2(SCc3ccccc3)C(C)(C)[C@@H]3CC[C@@]2(C)C3)n1	49.1

system: HT29 colon; assay: inhibition of tumour cell growth, NCI panel, 48 h

SMILES	TGI [µM]
COC(=O)C1CC(C=[N+](C)C)=C(SC)N1 (configuration not stated)	> 100
Brc1ccc2c3c1[C@@H]1O[C@@H]1c1cccc(c1-3)[C@@H]1O[C@H]21	53.3
N#CC(C#N)=C1CCCS(=O)(=O)c2ccccc21	> 100
O=c1c2cc(I)ccc2[nH]c(=S)n1Cc1ccccc1	> 100
CCOC(=O)c1cnc2[nH]ccn2c1=O	> 10
Cc1cccc(C[C@@]2(SCc3ccccc3)C(C)(C)[C@@H]3CC[C@@]2(C)C3)n1	31.9

system: IGROV1 ovarian; assay: inhibition of tumour cell growth, NCI panel, 48 h

SMILES	TGI [µM]
COC(=O)C1CC(C=[N+](C)C)=C(SC)N1 (configuration not stated)	> 100
O=C(O)Cc1ccc2nc(COC(=O)c3ccccc3)sc2c1	> 100
N#CC(C#N)=C1CCCS(=O)(=O)c2ccccc21	> 100
O=c1c2cc(I)ccc2[nH]c(=S)n1Cc1ccccc1	30.3
CCOC(=O)c1cnc2[nH]ccn2c1=O	> 10
Cc1cccc(C[C@@]2(SCc3ccccc3)C(C)(C)[C@@H]3CC[C@@]2(C)C3)n1	28.7

system: K-562 leukemia; assay: inhibition of tumour cell growth, NCI panel, 48 h

SMILES	TGI [µM]
COC(=O)C1CC(C=[N+](C)C)=C(SC)N1 (configuration not stated)	> 100
Brc1ccc2c3c1[C@@H]1O[C@@H]1c1cccc(c1-3)[C@@H]1O[C@H]21	> 100
O=C(O)Cc1ccc2nc(COC(=O)c3ccccc3)sc2c1	> 100
N#CC(C#N)=C1CCCS(=O)(=O)c2ccccc21	> 100
O=c1c2cc(I)ccc2[nH]c(=S)n1Cc1ccccc1	> 100
CCOC(=O)c1cnc2[nH]ccn2c1=O	> 10
Cc1cccc(C[C@@]2(SCc3ccccc3)C(C)(C)[C@@H]3CC[C@@]2(C)C3)n1	28.9

system: KM12 colon; assay: inhibition of tumour cell growth, NCI panel, 48 h

SMILES	TGI [µM]
COC(=O)C1CC(C=[N+](C)C)=C(SC)N1 (configuration not stated)	> 100
Brc1ccc2c3c1[C@@H]1O[C@@H]1c1cccc(c1-3)[C@@H]1O[C@H]21	36
O=C(O)Cc1ccc2nc(COC(=O)c3ccccc3)sc2c1	> 100
N#CC(C#N)=C1CCCS(=O)(=O)c2ccccc21	> 100
O=c1c2cc(I)ccc2[nH]c(=S)n1Cc1ccccc1	> 100
CCOC(=O)c1cnc2[nH]ccn2c1=O	> 10
Cc1cccc(C[C@@]2(SCc3ccccc3)C(C)(C)[C@@H]3CC[C@@]2(C)C3)n1	36.9

system: LOX IMVI melanoma; assay: inhibition of tumour cell growth, NCI panel, 48 h

SMILES	TGI [µM]
Brc1ccc2c3c1[C@@H]1O[C@@H]1c1cccc(c1-3)[C@@H]1O[C@H]21	6.86
O=C(O)Cc1ccc2nc(COC(=O)c3ccccc3)sc2c1	> 100
N#CC(C#N)=C1CCCS(=O)(=O)c2ccccc21	> 100
O=c1c2cc(I)ccc2[nH]c(=S)n1Cc1ccccc1	> 100
CCOC(=O)c1cnc2[nH]ccn2c1=O	> 10
Cc1cccc(C[C@@]2(SCc3ccccc3)C(C)(C)[C@@H]3CC[C@@]2(C)C3)n1	30.2

system: M14 melanoma; assay: inhibition of tumour cell growth, NCI panel, 48 h

SMILES	TGI [µM]
COC(=O)C1CC(C=[N+](C)C)=C(SC)N1 (configuration not stated)	> 100
Brc1ccc2c3c1[C@@H]1O[C@@H]1c1cccc(c1-3)[C@@H]1O[C@H]21	35.5
O=C(O)Cc1ccc2nc(COC(=O)c3ccccc3)sc2c1	> 100
N#CC(C#N)=C1CCCS(=O)(=O)c2ccccc21	> 100
O=c1c2cc(I)ccc2[nH]c(=S)n1Cc1ccccc1	> 100
CCOC(=O)c1cnc2[nH]ccn2c1=O	> 10
Cc1cccc(C[C@@]2(SCc3ccccc3)C(C)(C)[C@@H]3CC[C@@]2(C)C3)n1	46.2

system: MALME-3M melanoma; assay: inhibition of tumour cell growth, NCI panel, 48 h

SMILES	TGI [µM]
COC(=O)C1CC(C=[N+](C)C)=C(SC)N1 (configuration not stated)	> 100
Brc1ccc2c3c1[C@@H]1O[C@@H]1c1cccc(c1-3)[C@@H]1O[C@H]21	41.6
O=C(O)Cc1ccc2nc(COC(=O)c3ccccc3)sc2c1	> 100
CCOC(=O)c1cnc2[nH]ccn2c1=O	> 10
Cc1cccc(C[C@@]2(SCc3ccccc3)C(C)(C)[C@@H]3CC[C@@]2(C)C3)n1	33

system: MCF7 breast; assay: inhibition of tumour cell growth, NCI panel, 48 h

SMILES	TGI [µM]
COC(=O)C1CC(C=[N+](C)C)=C(SC)N1 (configuration not stated)	> 100
Brc1ccc2c3c1[C@@H]1O[C@@H]1c1cccc(c1-3)[C@@H]1O[C@H]21	> 100
O=C(O)Cc1ccc2nc(COC(=O)c3ccccc3)sc2c1	> 100
N#CC(C#N)=C1CCCS(=O)(=O)c2ccccc21	> 100
O=c1c2cc(I)ccc2[nH]c(=S)n1Cc1ccccc1	> 100
CCOC(=O)c1cnc2[nH]ccn2c1=O	> 10
Cc1cccc(C[C@@]2(SCc3ccccc3)C(C)(C)[C@@H]3CC[C@@]2(C)C3)n1	26.8

system: MDA-MB-231 breast; assay: inhibition of tumour cell growth, NCI panel, 48 h

SMILES	TGI [µM]
COC(=O)C1CC(C=[N+](C)C)=C(SC)N1 (configuration not stated)	> 100
Brc1ccc2c3c1[C@@H]1O[C@@H]1c1cccc(c1-3)[C@@H]1O[C@H]21	65.8
O=C(O)Cc1ccc2nc(COC(=O)c3ccccc3)sc2c1	> 100
N#CC(C#N)=C1CCCS(=O)(=O)c2ccccc21	> 100
O=c1c2cc(I)ccc2[nH]c(=S)n1Cc1ccccc1	66.3
CCOC(=O)c1cnc2[nH]ccn2c1=O	> 10
Cc1cccc(C[C@@]2(SCc3ccccc3)C(C)(C)[C@@H]3CC[C@@]2(C)C3)n1	28.5

system: MDA-MB-435; assay: inhibition of tumour cell growth, NCI panel, 48 h

SMILES	TGI [µM]
COC(=O)C1CC(C=[N+](C)C)=C(SC)N1 (configuration not stated)	> 100
Brc1ccc2c3c1[C@@H]1O[C@@H]1c1cccc(c1-3)[C@@H]1O[C@H]21	48.3
O=C(O)Cc1ccc2nc(COC(=O)c3ccccc3)sc2c1	> 100
N#CC(C#N)=C1CCCS(=O)(=O)c2ccccc21	> 100
O=c1c2cc(I)ccc2[nH]c(=S)n1Cc1ccccc1	> 100
CCOC(=O)c1cnc2[nH]ccn2c1=O	> 10
Cc1cccc(C[C@@]2(SCc3ccccc3)C(C)(C)[C@@H]3CC[C@@]2(C)C3)n1	78.3

system: MDA-N; assay: inhibition of tumour cell growth, NCI panel, 48 h

SMILES	TGI [µM]
COC(=O)C1CC(C=[N+](C)C)=C(SC)N1 (configuration not stated)	> 100
Brc1ccc2c3c1[C@@H]1O[C@@H]1c1cccc(c1-3)[C@@H]1O[C@H]21	53.5
O=C(O)Cc1ccc2nc(COC(=O)c3ccccc3)sc2c1	> 100
N#CC(C#N)=C1CCCS(=O)(=O)c2ccccc21	> 100
O=c1c2cc(I)ccc2[nH]c(=S)n1Cc1ccccc1	> 100
CCOC(=O)c1cnc2[nH]ccn2c1=O	> 10
Cc1cccc(C[C@@]2(SCc3ccccc3)C(C)(C)[C@@H]3CC[C@@]2(C)C3)n1	60.2

system: MOLT-4 leukemia; assay: inhibition of tumour cell growth, NCI panel, 48 h

SMILES	TGI [µM]
COC(=O)C1CC(C=[N+](C)C)=C(SC)N1 (configuration not stated)	> 100
Brc1ccc2c3c1[C@@H]1O[C@@H]1c1cccc(c1-3)[C@@H]1O[C@H]21	> 100
N#CC(C#N)=C1CCCS(=O)(=O)c2ccccc21	> 100
O=c1c2cc(I)ccc2[nH]c(=S)n1Cc1ccccc1	> 100
CCOC(=O)c1cnc2[nH]ccn2c1=O	> 10
Cc1cccc(C[C@@]2(SCc3ccccc3)C(C)(C)[C@@H]3CC[C@@]2(C)C3)n1	27.3

system: NCI-H226 lung; assay: inhibition of tumour cell growth, NCI panel, 48 h

SMILES	TGI [µM]
Brc1ccc2c3c1[C@@H]1O[C@@H]1c1cccc(c1-3)[C@@H]1O[C@H]21	> 100
N#CC(C#N)=C1CCCS(=O)(=O)c2ccccc21	> 100
O=c1c2cc(I)ccc2[nH]c(=S)n1Cc1ccccc1	> 100
CCOC(=O)c1cnc2[nH]ccn2c1=O	> 10

system: NCI-H23 lung; assay: inhibition of tumour cell growth, NCI panel, 48 h

SMILES	TGI [µM]
COC(=O)C1CC(C=[N+](C)C)=C(SC)N1 (configuration not stated)	> 100

— PubChem BioAssay (NCI)
